Measurements taken from patent US20240150377A1, “MODULATORS OF CYSTIC FIBROSIS TRANSMEMBRANE CONDUCTANCE REGULATOR” (VERTEX PHARMACEUTICALS INCORPORATED, priority 2020, published 2024).
Like-named read-outs stand apart in the source and are kept apart here. Values belong to the molecule of their own block, whether it stands above or below them.

Target: T1, CFTR (Homo sapiens, UniProt P13569, DEL508-508)
T1 construct: endogenous in cells; host or cells: primary human bronchial epithelial cells from CF subjects (F508del/MF-HBE), differentiated at air-liquid interface
T1 sequence (P13569 with tags, fused parts or gaps DEL508-508): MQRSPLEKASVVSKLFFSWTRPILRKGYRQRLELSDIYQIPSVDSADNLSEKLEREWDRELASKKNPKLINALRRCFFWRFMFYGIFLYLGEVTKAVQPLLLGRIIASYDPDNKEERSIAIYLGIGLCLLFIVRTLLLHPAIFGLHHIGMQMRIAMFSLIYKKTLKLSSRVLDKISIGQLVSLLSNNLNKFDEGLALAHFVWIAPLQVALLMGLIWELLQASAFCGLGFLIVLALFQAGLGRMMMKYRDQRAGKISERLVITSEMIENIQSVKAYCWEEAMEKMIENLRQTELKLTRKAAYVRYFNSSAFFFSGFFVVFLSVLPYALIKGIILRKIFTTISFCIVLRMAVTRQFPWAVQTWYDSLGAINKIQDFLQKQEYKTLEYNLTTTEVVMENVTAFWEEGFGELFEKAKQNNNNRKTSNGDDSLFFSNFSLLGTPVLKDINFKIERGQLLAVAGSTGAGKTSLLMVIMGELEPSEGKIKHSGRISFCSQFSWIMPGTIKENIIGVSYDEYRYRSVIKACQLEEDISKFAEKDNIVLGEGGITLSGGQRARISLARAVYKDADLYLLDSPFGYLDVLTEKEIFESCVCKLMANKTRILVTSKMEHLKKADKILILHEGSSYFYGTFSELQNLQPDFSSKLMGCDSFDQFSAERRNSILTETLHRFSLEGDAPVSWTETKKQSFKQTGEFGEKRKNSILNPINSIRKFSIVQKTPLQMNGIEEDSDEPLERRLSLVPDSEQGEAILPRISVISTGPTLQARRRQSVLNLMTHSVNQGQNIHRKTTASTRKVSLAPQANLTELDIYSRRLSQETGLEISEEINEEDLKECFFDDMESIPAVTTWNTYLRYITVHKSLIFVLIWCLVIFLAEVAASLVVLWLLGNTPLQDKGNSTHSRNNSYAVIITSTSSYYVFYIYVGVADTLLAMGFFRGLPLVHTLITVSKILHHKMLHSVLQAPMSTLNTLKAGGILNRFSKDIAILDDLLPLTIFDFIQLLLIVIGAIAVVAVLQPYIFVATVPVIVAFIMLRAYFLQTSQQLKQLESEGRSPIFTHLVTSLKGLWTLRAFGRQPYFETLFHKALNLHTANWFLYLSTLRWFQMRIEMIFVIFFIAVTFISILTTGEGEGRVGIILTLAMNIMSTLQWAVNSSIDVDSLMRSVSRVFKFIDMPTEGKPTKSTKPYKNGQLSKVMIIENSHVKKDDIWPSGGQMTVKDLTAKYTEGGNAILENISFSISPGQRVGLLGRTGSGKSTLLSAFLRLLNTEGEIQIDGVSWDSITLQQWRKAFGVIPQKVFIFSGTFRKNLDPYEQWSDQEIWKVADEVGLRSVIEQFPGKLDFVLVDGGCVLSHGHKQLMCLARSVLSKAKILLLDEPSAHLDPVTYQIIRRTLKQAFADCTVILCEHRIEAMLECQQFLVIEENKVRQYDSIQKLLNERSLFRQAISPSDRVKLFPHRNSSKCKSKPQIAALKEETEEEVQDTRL
Experiment: HBE assay: Ussing chamber assay of CFTR-mediated short-circuit currents
Format: cell-based
Details: for EC50: read-out: HBE EC50
How it was run: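 CFTR-mediated Isc (μA/cm²) equals the peak response to apical 20 μM forskolin minus the residual after a 20 μM each BPO/GlyH-101/CFTR inhibitor 172 cocktail, recorded in Ussing chambers at Vhold 0 mV, 37 °C, pH 7.4, with 30 μM apical amiloride. Cells were F508del/MF HBE cultures preincubated 18-24 h with corrector (concentration range or 10 μM) plus 1 μM ivacaftor in 20% human serum.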

[1] = Table 11, read-out: HBE Max Activity (%)
[2] = Table 10, at 10 μM, read-out: HBE activity at 10 (μM) (%)
[3] = Table 13, at 10 μM, read-out: HBE Activity at 10 μM (%)
[4] = Table 12, read-out: HBE Max Activity (%)
[5] = Table 10, read-out: HBE Max activity (%)
[6] = HBE assay, read-out: HBE Max activity (%)

- EC50 (Table 11): < 1000 nM
- Emax [1]: > 60%
Compound: Cc1cccc(C)c1-c1cc2nc(n1)NS(=O)(=O)c1cccc(c1)C(=O)N(C[C@@H]1CN(CC(C)(C)C)CCO1)[C@H](CC(C)(C)C)CO2 [Compound 142, (11R)-6-(2,6-Dimethylphenyl)-11-(2,2-dimethylpropyl)-12-{[(2S)-4-(2,2-dimethylpropyl)morpholin-2-yl]methyl}-9-oxa-2λ^6-thia-3,5,12,19-tetraazatricyclo[12.3.1.14,8]nonadeca-1(17),4,6,8(19),14(18),15-hexaene-2,2,13-trione]

- activation at 10 µM (Table 12, at 10 μM, read-out: HBE Activity at 10 μM (%)): > 600%
Compound: Cc1cccc(C)c1-c1cc2nc(n1)NS(=O)(=O)c1cccc(c1)C(=O)N(Cc1cncc(N3CCC[C@H]3C)c1)[C@H](CC(C)(C)C)CO2 [Compound 284]

- activation at 10 µM [2]: > 60%
Compound: Cc1cccc(C)c1-c1cc2nc(n1)NS(=O)(=O)c1cccc(c1)C(=O)N(Cc1ccccc1-c1c[nH]nc1C)[C@H](CC(C)(C)C)CO2 [Compound 307]

- EC50 (Table 11): 1000 to 3000 nM
- Emax [1]: > 60%
Compound: Cc1cccc(C)c1-c1cc2nc(n1)NS(=O)(=O)c1cccc(c1)C(=O)N(Cc1cnc(C3CCCCC3)cn1)[C@H](CC(C)(C)C)CO2 [Compound 891]

- activation at 10 µM (HBE assay, 10 μM, read-out: HBE Activity at 10 μM (%)): > 60%
Compound: CC[C@@]1(CO)CCCN1c1cccc(CN2C(=O)c3cccc(c3)S(=O)(=O)Nc3nc(cc(-c4c(C)cccc4C)n3)OC[C@H]2CC(C)(C)C)n1 (stereo in doubt) [Compound 1459]

- EC50 (Table 11): < 1000 nM
- Emax [1]: > 60%
Compound: Cc1cccc(C)c1-c1cc2nc(n1)NS(=O)(=O)c1cccc(c1)C(=O)N(Cc1ncc(N3CCC(C)CC3)cn1)[C@H](CC(C)(C)C)CO2 [Compound 719]

- activation at 10 µM [3]: > 600%
Compound: Cc1cccc(C)c1-c1cc2nc(n1)NS(=O)(=O)c1cccc(c1)C(=O)N(Cc1ccc(N3CCCC3=O)cn1)[C@H](CC(C)(C)C)CO2 [Compound 257]

- EC50 (Table 12): < 1000 nM
Compound: Cc1cccc(C)c1-c1cc2nc(n1)NS(=O)(=O)c1cccc(c1)C(=O)N(Cc1cncc(N(C)C3CCC34CCC4)n1)[C@H](CC(C)(C)C)CO2 (some centres unmarked) [Compound 438]

- EC50 (Table 12): < 1000 nM
- Emax [4]: > 60%
Compound: Cc1cc(C)nc(CN2C(=O)c3cccc(c3)S(=O)(=O)Nc3nc(cc(-c4c(C)cccc4C)n3)OC[C@H]2CC(C)(C)C)n1 [Compound 1009]

- EC50 (Table 10): 1000 to 3000 nM
- Emax [5]: > 60%
Compound: COCCN(C)c1ccc(CN2C(=O)c3cccc(c3)S(=O)(=O)Nc3nc(cc(-c4c(C)cccc4C)n3)OC[C@H]2CC(C)(C)C)nc1 [Compound 504]

- EC50 (Table 13): < 1000 nM
- Emax (Table 13, read-out: HBE Max Activity (%)): > 60%
Compound: Cc1ccc(N(C)C2CC3(CC3)C2)nc1CN1C(=O)c2cccc(c2)S(=O)(=O)Nc2nc(cc(-c3c(C)cccc3C)n2)OC[C@H]1CC(C)(C)C [Compound 1140]

- activation at 10 µM (Table 11, at 10 μM, read-out: HBE Activity at 10 μM (%)): < 30%
Compound: Cc1cccc(C)c1-c1cc2nc(n1)NS(=O)(=O)c1cccc(c1)C(=O)N(Cc1cc3ccccn3n1)[C@H](CC(C)(C)C)CO2 [Compound 743]

Compound: Cc1cccc(C)c1-c1cc2nc(n1)NS(=O)(=O)c1cccc(c1)C(=O)N(Cc1ncc(OC3CCC3)cc1F)[C@H](CC(C)(C)C)CO2 [Compound 1299, (11R)-12-[[5-(Cyclobutoxy)-3-fluoro-2-pyridyl]methyl]-6-(2,6-dimethylphenyl)-11-(2,2-dimethylpropyl)-2,2-dioxo-9-oxa-2λ^6-thia-3,5,12,19-tetrazatricyclo[12.3.1.14,8]nonadeca-1(18),4(19),5,7,14,16-hexaen-13-one]
- EC50 (HBE assay): < 1000 nM
- Emax [6]: > 60%

- EC50 (Table 11): < 1000 nM
- Emax [1]: > 60%
Compound: Cc1cccc(C)c1-c1cc2nc(n1)NS(=O)(=O)c1cccc(c1)C(=O)N(Cc1cccc(N3CCCC3)n1)[C@H](CC(C)(C)C)CO2 [Compound 630]

- EC50 (Table 11): 1000 to 3000 nM
- Emax [1]: > 60%
Compound: Cc1cccc(C)c1-c1cc2nc(n1)NS(=O)(=O)c1cccc(c1)C(=O)N(Cc1ncc(C3CCCCC3)cn1)[C@H](CC(C)(C)C)CO2 [Compound 644]

- EC50 (Table 12): < 1000 nM
- Emax [4]: > 60%
Compound: Cc1cccc(C)c1-c1cc2nc(n1)NS(=O)(=O)c1cccc(c1)C(=O)N(Cc1cncc(N3CCC(C)(C)C3)c1)[C@H](CC(C)(C)C)CO2 [Compound 285]

- EC50 (HBE assay): < 1000 nM
- Emax [6]: > 60%
Compound: Cc1cccc(C)c1-c1cc2nc(n1)NS(=O)(=O)c1cccc(c1)C(=O)N(Cc1ncc(OCC(F)(F)F)cn1)[C@H](CC(C)(C)C)CO2 [Compound 1431]

- activation at 10 µM [2]: > 60%
Compound: Cc1cccc(C)c1-c1cc2nc(n1)NS(=O)(=O)c1cccc(c1)C(=O)N(Cc1cn(C)nc1C)[C@H](CC(C)(C)C)CO2 [Compound 822]

- EC50 (Table 12): < 1000 nM
- Emax [4]: > 60%
Compound: Cc1cccc(C)c1-c1cc2nc(n1)NS(=O)(=O)c1cccc(c1)C(=O)N(Cc1nc(N(C)CC(C)(C)C)ccc1C(F)(F)F)[C@H](CC(C)(C)C)CO2 [Compound 457]

- activation at 10 µM [2]: > 60%
- EC50 (Table 10): < 1000 nM
- Emax [5]: > 60%
Compound: Cc1cccc(C)c1-c1cc2nc(n1)NS(=O)(=O)c1cccc(c1)C(=O)N(Cc1ncccc1CCC(C)(C)ON)[C@H](CC(C)(C)C)CO2 [Compound 771]

- EC50 (HBE assay): < 1000 nM
- Emax [6]: > 60%
Compound: Cc1cccc(C)c1-c1cc2nc(n1)NS(=O)(=O)c1cccc(c1)C(=O)N(Cc1cncc(N(C)C3CCCC3)n1)[C@H](CC(C)(C)C)CO2 [Compound 1387]

- EC50 (Table 11): < 1000 nM
- Emax [1]: > 60%
Compound: Cc1cccc(C)c1-c1cc2nc(n1)NS(=O)(=O)c1cccc(c1)C(=O)N(Cc1ccc(OC(C)C)cn1)[C@H](CC(C)(C)C)CO2 [Compound 744]

- EC50 (HBE assay): < 1000 nM
- Emax [6]: > 60%
Compound: Cc1cccc(C)c1-c1cc2nc(n1)NS(=O)(=O)c1cccc(c1)C(=O)N(Cc1ncc(N3CC(F)(F)C3)cn1)[C@H](CC(C)(C)C)CO2 [Compound 1444]

- activation at 10 µM [3]: > 600%
Compound: Cc1cccc(C)c1-c1cc2nc(n1)NS(=O)(=O)c1cccc(c1)C(=O)N(CC(=O)N1CCCCC1c1ccccc1)[C@H](CC(C)(C)C)CO2 (some centres unmarked) [Compound 196]

- EC50 (Table 11): < 1000 nM
- Emax [1]: > 60%
Compound: Cc1cccc(C)c1-c1cc2nc(n1)NS(=O)(=O)c1cccc(c1)C(=O)N(Cc1ncc(C#N)cn1)[C@H](CC(C)(C)C)CO2 [Compound 643]

- EC50 (HBE assay): < 1000 nM
- Emax [6]: > 60%
Compound: COCCOc1cnc(CN2C(=O)c3cccc(c3)S(=O)(=O)Nc3nc(cc(-c4c(C)cccc4C)n3)OC[C@H]2CC(C)(C)C)nc1 [Compound 1380]

- activation at 10 µM [2]: > 60%
Compound: Cc1cccc(C)c1-c1cc2nc(n1)NS(=O)(=O)c1cccc(c1)C1Oc3nc4ccccc4cc3CN1[C@H](CC(C)(C)C)CO2 (some centres unmarked) [Compound 755]

- EC50 (HBE assay): < 1000 nM
- Emax [6]: > 60%
Compound: CCO[C@H]1C[C@@H](Oc2cnc(CN3C(=O)c4cccc(c4)S(=O)(=O)Nc4nc(cc(-c5c(C)cccc5C)n4)OC[C@H]3CC(C)C)nc2)C1 [Compound 1461]

- EC50 (HBE assay): < 1000 nM
- Emax [6]: > 60%
Compound: Cc1cccc(C)c1-c1cc2nc(n1)NS(=O)(=O)c1cccc(c1)C(=O)N(Cc1ncc(N3CCC(F)(F)C3)cn1)[C@H](CC1CCC1)CO2 [Compound 1479]

- EC50 (Table 10): < 1000 nM
- Emax [5]: > 60%
Compound: COc1ncc(-c2ccc(CN3C(=O)c4cccc(c4)S(=O)(=O)Nc4nc(cc(-c5c(C)cccc5C)n4)OC[C@H]3CC(C)(C)C)cc2)cn1 [Compound 783]

- EC50 (Table 12): < 1000 nM
- Emax [4]: > 60%
Compound: COC[C@@H](C)N(C)c1ccnc(CN2C(=O)c3cccc(c3)S(=O)(=O)Nc3nc(cc(-c4c(C)cccc4C)n3)OC[C@H]2CC(C)(C)C)n1 [Compound 446]

- EC50 (HBE assay): < 1000 nM
- Emax [6]: > 60%
Compound: Cc1cccc(C)c1-c1cc2nc(n1)NS(=O)(=O)c1cccc(c1)C(=O)N(Cc1cccc(N3CCOCC(C)(C)C3)n1)[C@H](CC(C)(C)C)CO2 [Compound 1414]
